Marks after values point to notes of the source that are not given here.
Columns and labels:
[1] = test system: Septoria tritici; assay: Test F: wheat leaf blotch, preventive spray on wheat seedlings, visual disease rating; type: in vivo; parameters: Test F rating (disease control), value marked *: concentration or dose not given beside the values; details: for pest or weed control at 200 µg/mL: Zymoseptoria tritici; for pest or weed control at 200 µg/mL / Test F rating (disease control): 100 = 100% disease control, 0 = no disease control relative to the controls
Source text: (§1) A hyphen (-) indicates no test results.

[2] = test system: Puccinia recondita f. sp. tritici; assay: Test G: wheat leaf rust, spray after inoculation (curative) on wheat seedlings, visual disease rating; type: in vivo; details: sprayed after inoculation, 100 = 100% disease control, 0 = no disease control
Source text: as §1

[3] = test system: Alternaria solani; assay: Test B: tomato early blight, preventive spray on tomato seedlings, visual disease rating; details: for pest or weed control at 200 µg/mL: Alternaria solani, in Solanum lycopersicum, read-out: Test B rating (disease control); for Test B rating (disease control): tomato early blight, 100 = 100% disease control, 0 = no disease control relative to the controls
[4] = test system: Puccinia recondita f. sp. tritici; assay: Test H: wheat leaf rust, preventive spray on wheat seedlings, visual disease rating; details: 100 = 100% disease control, 0 = no disease control; for pest or weed control at 200 µg/mL: read-out: Test H rating (disease control), wheat leaf rust, sprayed the day before inoculation; for Test H rating (disease control): wheat leaf rust, sprayed the day before inoculation
[5] = test system: Botrytis cinerea; assay: Test A: tomato Botrytis, preventive spray on tomato seedlings, visual disease rating; details: 100 = 100% disease control, 0 = no disease control relative to the controls; for pest or weed control at 200 µg/mL: Botrytis cinerea, in Solanum lycopersicum, read-out: Test A rating (disease control), tomato Botrytis; for Test A rating (disease control): tomato Botrytis
[6] = test system: Blumeria graminis f. sp. tritici; assay: Test I: wheat powdery mildew, preventive spray on wheat seedlings, visual disease rating; details: for pest or weed control at 200 µg/mL: Blumeria graminis, in Triticum aestivum, read-out: Test I rating (disease control), wheat powdery mildew; for pest or weed control at 200 µg/mL / Test I rating (disease control): 100 = 100% disease control, 0 = no disease control relative to the controls
Experimental: General protocol for preparing test suspensions for Tests A-I: the test compounds were first dissolved in acetone in an amount equal to 3% of the final volume and then suspended at the desired concentration (in ppm) in acetone and purified water (50/50 mix by volume) containing 250 ppm of the surfactant Trem® 014 (polyhydric alcohol esters). The resulting test suspensions were then used in Tests A-I. Each test was conducted in triplicate, and the results were averaged. Spraying a 200 ppm test suspension to the point of run-off on the test plants was the equivalent of a rate of about 800 g/ha. Unless otherwise indicated, the rating values indicate a 200 ppm test suspension was used. (An asterisk “*” next to the rating value indicates a 40 ppm test suspension was used.)
The test suspension was sprayed to the point of run-off on wheat seedlings. The following day the seedlings were inoculated with a spore dust of Blumeria graminis f. sp. tritici (also known as Erysiphe graminis f. sp. tritici, the causal agent of wheat powdery mildew) and incubated in a growth chamber at 20° C. for 8 days, after which time visual disease ratings were made.

[7] = test system: Septoria nodorum; assay: Test E: Septoria glume blotch, preventive spray on wheat seedlings, visual disease rating; details: 100 = 100% disease control, 0 = no disease control relative to the controls; for pest or weed control at 200 µg/mL: Parastagonospora nodorum, in Triticum aestivum, read-out: Test E rating (disease control), Septoria glume blotch; for Test E rating (disease control): Septoria glume blotch

| SMILES | pest or weed control at 200 µg/mL [1] [%] | pest or weed control at 200 µg/mL [2] [%] | pest or weed control at 200 µg/mL [3] [%] | pest or weed control at 200 µg/mL [4] [%] | pest or weed control at 200 µg/mL [5] [%] | pest or weed control at 200 µg/mL [6] [%] | pest or weed control at 200 µg/mL [7] [%] | Test F rating (disease control) [1] [%] | Test G rating (disease control) [2] [%] | Test B rating (disease control) [3] [%] | Test H rating (disease control) [4] [%] | Test A rating (disease control) [5] [%] | Test I rating (disease control) ([6]; wheat powdery mildew) [%] | Test E rating (disease control) [7] [%] | Test I rating (disease control), value marked * ([6]; wheat powdery mildew, rating marked with asterisk (*), not explained in the text shown) | Test F rating (disease control), value marked * ([1]; rating marked with asterisk (*), other test condition, not explained in the text shown) |
| --- | --- | --- | --- | --- | --- | --- | --- | --- | --- | --- | --- | --- | --- | --- | --- | --- |
| Cc1nn(C)c(Nc2c(F)cc(C#N)cc2F)c1-c1ccc(F)cc1Cl [Compound 25, 4-[[4-(2-chloro-4-fluorophenyl)-1,3-dimethyl-1H-pyrazol-5-yl]amino]-3,5-difluorobenzonitrile] | 99 | 0 | 99 | 100 | 100 | 100 | 95 | – | – | – | – | – | – | – | – | – |
| COc1cc(F)c(-c2c(C)nn(C)c2Oc2c(F)cccc2F)c(F)c1 [compound 22] | – | – | – | – | – | – | – | 100 | 98 | 100 | 100 | 100 | 99 | 78 | – | – |
| Cc1nn(C)c(Oc2ccc(C#N)cc2F)c1-c1ccc(F)cc1Cl [Compound 33, 4-[[4-(2-chloro-4-fluorophenyl)-1,3-dimethyl-1H-pyrazol-5-yl]oxy]-3-fluorobenzonitrile] | 100 | 99 | 100 | 100 | 100 | 99 | 98 | – | – | – | – | – | – | – | – | – |
| Cc1nn(C)c(Nc2ccc(Cl)cc2Cl)c1-c1ccc(F)cc1F [compound 67] | – | – | – | – | – | – | – | 100 | 0 | 64 | 97 | 100 | 100 | 0 | – | – |
| COc1cc(F)c(-c2c(C)nn(C)c2Oc2ccc(Cl)cc2Cl)c(F)c1 [compound 10] | – | – | – | – | – | – | – | 94 | 92 | 0 | 99 | 99 | 99 | 0 | – | – |
| Cc1nn(C)c(Nc2c(Cl)cc(F)cc2Br)c1-c1ccc(F)cc1F [compound 120] | – | – | – | – | – | – | – | 100 | 19 | 80 | 100 | 100 | 100 | 94 | – | – |
| COc1cc(F)c(-c2c(C)nn(C)c2Oc2c(F)cc(Br)cc2F)c(F)c1 [compound 24] | – | – | – | – | – | – | – | 100 | 0 | 95 | 98 | 99 | 100 | 84 | – | – |
| COc1cc(Cl)c(Nc2c(-c3ccc(F)cc3Br)c(C)nn2C)c(Cl)c1 [compound 102] | – | – | – | – | – | – | – | 98 | 0 | 0 | 94 | 98 | – | 0 | 95* % | – |
| Cc1nn(C)c(Oc2ccc(C#N)cc2F)c1-c1ccc(F)cc1Br [Compound 79, 4-[[4-(2-bromo-4-fluorophenyl)-1,3-dimethyl-1H-pyrazol-5-yl]oxy]-3-fluorobenzonitrile] | – | 28 | 99 | 100 | 99 | 100 | 100 | – | – | – | – | – | – | – | – | 100* % |
| Cc1nn(C)c(Nc2ccc(F)cc2F)c1-c1ccccc1Cl [compound 97] | – | – | – | – | – | – | – | 100 | 0 | 99 | 96 | 99 | 100 | 0 | – | – |
| Cc1nn(C)c(Nc2c(F)cc(F)cc2Cl)c1-c1c(F)cccc1Cl [compound 87] | – | – | – | – | – | – | – | 100 | 0 | 93 | 100 | 100 | 100 | 87 | – | – |
| Cc1nn(C)c(Oc2ccc(C#N)cc2F)c1-c1c(F)cccc1F [Compound 130, 4-[[4-(2,6-difluorophenyl)-1,3-dimethyl-1H-pyrazol-5-yl]oxy]-3-fluorobenzonitrile] | 100 | 0 | 90 | 100 | 100 | 100 | 0 | – | – | – | – | – | – | – | – | – |
| COc1ccc(Nc2c(-c3c(F)cccc3F)c(C)nn2C)c(Cl)c1 [compound 60] | – | – | – | – | – | – | – | 100 | 18 | 97 | 97 | 99 | 99 | 20 | – | – |
| Cc1nn(C)c(C(O)c2c(F)cc(Cl)cc2F)c1-c1ccc(F)cc1Cl (stereo not drawn) [Compound 148, α-(4-chloro-2,6-difluorophenyl)-4-(2-chloro-4-fluorophenyl)-1,3-dimethyl-1H-pyrazole-5-methanol] | 100 | 0 | 0 | 100 | 100 | 64 | 60 | – | – | – | – | – | – | – | – | – |
| COc1cc(F)c(Nc2c(-c3ccccc3F)c(C)nn2C)c(F)c1 [compound 54] | – | – | – | – | – | – | – | 99 | 27 | 100 | 94 | 97 | 99 | 67 | – | – |
| Cc1nn(C)c(Nc2c(F)cc(F)cc2F)c1-c1ccc(F)cc1Br [Compound 74, 4-(2-bromo-4-fluorophenyl)-1,3-dimethyl-N-(2,4,6-trifluorophenyl)-1H-pyrazol-5-amine] | 100 | 0 | 100 | 100 | 100 | 100 | 98 | – | – | – | – | – | – | – | – | – |
| Cc1nn(C)c(Oc2c(F)cc(C#N)cc2F)c1-c1ccccc1Cl [compound 75] | – | – | – | – | – | – | – | 100 | 0 | 99 | 99 | 100 | 98 | 99 | – | – |
